Test results taken from patent US5004742A, “Benzothiazine-1,1-dioxide derivatives” (Nippon Hypox Laboratories Incorporated, priority 1989, dated 1991).

Experiments:
[1] = system: rat peritoneal mast cells; assay: Histamine liberation from rat peritoneal mast cells by concanavalin A; assay type: cell-based; conditions: Mast cell, test compound 0.2 mM, phosphatidylserine 3.0 μg/ml
Experimental: This test was effected in accordance with the method of R. P. Siraganian [J. Immunol., 114, 886 (1974)]. That is, a Locke solution containing phosphatidylserine, a test compound and a suspension of rat peritoneal mast cells was heated for 20 minutes at 37° C. Incidentally, the concentrations of phosphatidylserine and the test compound in the Locke solution were 3.0 μg/ml and 0.2 mM, respectively. A concanavalin A solution was added to the Locke solution, and the mixture was subjected to a reaction for 10 minutes at 37° C. After ice-cooling, the reaction mixture was subjected to centrifugation for 10 minutes at 4° C. Both the supernatant and the precipitate were measured for histamine content by the method of Shore et al. [J. Exp. Ther., 127, 182 (1959)] to determine a ratio of histamine liberated.

[2] = target: T1, hyaluronidase taken from bovine testicles (Bos taurus, UniProt Q2YDK3); assay: Effect on hyaluronidase activity; assay type: biochemical; conditions: concentration range 0.01-0.3 mM; bovine testicular hyaluronidase, pH 3.5
T1 construct: purchased Sigma Co; host or cells: bovine testicles
T1 sequence (Q2YDK3 36-553): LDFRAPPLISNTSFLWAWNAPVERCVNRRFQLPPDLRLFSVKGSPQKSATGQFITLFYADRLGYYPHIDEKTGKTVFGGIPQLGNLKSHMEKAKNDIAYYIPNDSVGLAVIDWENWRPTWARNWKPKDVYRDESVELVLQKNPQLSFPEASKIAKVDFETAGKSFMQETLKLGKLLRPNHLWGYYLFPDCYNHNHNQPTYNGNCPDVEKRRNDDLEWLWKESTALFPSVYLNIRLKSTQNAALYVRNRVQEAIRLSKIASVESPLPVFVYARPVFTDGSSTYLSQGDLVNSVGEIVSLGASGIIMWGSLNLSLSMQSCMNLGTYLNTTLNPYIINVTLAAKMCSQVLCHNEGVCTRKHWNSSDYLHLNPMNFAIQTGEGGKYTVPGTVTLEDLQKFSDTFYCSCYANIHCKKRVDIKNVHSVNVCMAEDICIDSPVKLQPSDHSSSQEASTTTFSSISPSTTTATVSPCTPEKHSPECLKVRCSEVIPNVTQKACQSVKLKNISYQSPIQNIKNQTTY
Experimental: 0.8 mg/ml of a hyaluronidase (a product of Sigma Co.) taken from bovine testicles was used as an enzyme. Test compounds (compound Nos. 1, 2, 4, 7, 8, 9 and 13) were dissolved at various concentrations in a 1 M acetate buffer (pH 3.5) and heated at 37° C. for 20 minutes. Then, calcium chloride was added to each of the resulting solutions so that the calcium chloride concentration became 5 mM, and each of the resulting mixtures was heated at 37° C. for 20 minutes.
Thereto was added potassium hyaluronate so that its concentration in the buffer became 2.4 mg/ml, and the mixture was heated at 37° C. for 40 minutes.
After the termination of the reaction, the amount of the substrate hydrolyzed was determined at 585 nm using the Elson-Morgan's procedure, from which there were determined the effects of each test compound at various concentrations on the normal enzymatic reaction.

[3] = system: rat 48-hour homologous PCA reaction; assay: Rat 48-hour homologous PCA reaction; assay type: in vivo; conditions: 200 mg/kg p.o. 60 minutes before antigen; for Amount of colorant which leaked out: control 9.7 ± 1.9
Experimental: Male SD rats weighing 200-250 g were injected with 0.1 ml of a rat anti-egg albumin serum diluted with a physiological saline solution, intradermally at the back in order to passively sensitize the rats. After 48 hours, 0.5 ml of 1% Evans Blue containing 5 mg of antigen (egg albumin) was administered intravenously. After 30 minutes, each rat was sacrificed by bleeding and the skin was peeled off. Then, the amount of the coloring material in the lesion was determined by the method of Katayama et al. [Microbial. Immunol., 122 (2), 89 (1987)]. Incidentally, each test compound had been administered orally 60 minutes before the antigen administration.

[4] = system: rat gastric mucosa; assay type: in vivo; conditions: 50 mg/kg p.o.
Experimental: The compound No. 1 of the present invention and two known cyclooxygenase inhibitors, i.e. Indometacin and Piroxicam were examined for action on rat gastric mucosa. That is, the compound No. 1, Indometacin or Piroxicam was administered orally to male SD rats (body weight: 200-250 g) which had been fasted for 24 hours. After the administration, the rats were allowed to no food and no water for 48 hours. Then, the stomach of each rat was removed under ether anesthesia and fixed with formalin. The resulting stomach was incised and the length of the mucous ulcer generated in the glandular portion of the stomach was measured using a dissecting microscope (magnification of 10).

[5] = system: rat peritoneal mast cells; conditions: 0.3 mM; concanavalin A; Chem. Pharm. Bull., 33 (9), 3738 (1985); cited from earlier work
[6] = target: T1, hyaluronidase taken from bovine testicles; conditions: Chem. Pharm. Bull., 33 (9), 3738 (1985), read-out: "50% enzyme inhibition" concentration; cited from earlier work
[7] = system: rat plantar edema induced by carrageenin; assay: Action against rat plantar edema induced by carrageenin; assay type: in vivo
Experimental: Male Sprague-Dawley rats weighing 200-250 g were injected s.c. (subcutaneously) with 0.1 ml of carrageenin into the subplantar region of the right hind paw. 60 minutes before the carrageenin administration, a test compound (compound No. 1) had been administered p.o. (orally). […] Thus, the anti-inflammatory effect of the compound of the present invention was proven in this animal test.

[8] = system: male ddy mice; assay: Acute toxicity by intravenous injection; assay type: in vivo; conditions: 10-500 mg/kg, 10 mice per group
Experimental: The compound of the present invention was further tested for acute toxicity by intravenous injection using male ddy mice. There was no death when the compound No. 1 of the present invention was administered in an amount of 10-500 mg/kg (each group consisted of 10 mice).

Structure (SMILES): CN1C(C(=O)Nc2cc(Cl)ccc2C(=O)O)=C(O)c2ccccc2S1(=O)=O [No. 4, 4-Hydroxy-2-methyl-N-(2'-carboxy-5'-chlorophenyl)-2H-1,2-benzothiazine-3-carboxamido-1,1-dioxide]
- inhibition at 200 µM [1]: 85.1%

Structure (SMILES): CN1C(C(=O)Nc2ccccc2)=C(O)c2ccccc2S1(=O)=O [4-hydroxy-2-methyl-N-(phenyl)-2H-1,2-benzothiazine-3-carboxamido-1,1-dioxide]
- effect on hyaluronidase activity [2]: no effect

Structure (SMILES): CN1C(C(=O)Nc2c(O)cccc2C(=O)O)=C(O)c2ccccc2S1(=O)=O [No. 8, 4-Hydroxy-2-methyl-N-(2'-carboxy-6'-hydroxyphenyl)-2H-1,2-benzothiazine-3-carboxamido-1,1-dioxide]
- inhibition at 200 µM [1]: 83.7%

Structure (SMILES): CN1C(C(=O)Nc2cccc(C(=O)O)c2)=C(O)c2ccccc2S1(=O)=O [No. 10, 4-Hydroxy-2-methyl-N-(3'-carboxyphenyl)-2H-1,2-benzothiazine-3-carboxamido-1,1-dioxide]
- inhibition at 200 µM [1]: 90.7%

Structure (SMILES): CN1C(C(=O)Nc2ccccc2C(=O)O)=C(O)c2ccccc2S1(=O)=O [No. 2, 4-Hydroxy-2-methyl-N-(2'-carboxyphenyl)-2H-1,2-benzothiazine-3-carboxamido-1,1-dioxide]
- Suppression (%) [3]: 29.3%
- Amount of colorant which leaked out [3]: 6.8 ± 2.3 μg/site
- inhibition at 200 µM [1]: 81.3%

Structure (SMILES): CN1C(C(=O)Nc2cc([N+](=O)[O-])ccc2C(=O)O)=C(O)c2ccccc2S1(=O)=O [No. 9, 4-Hydroxy-2-methyl-N-(2'-carboxy-5'-nitrophenyl)-2H-1,2-benzothiazine-3-carboxamido-1,1-dioxide]
- inhibition at 200 µM [1]: 106%

Structure (SMILES): Cc1ccc(NC(=O)C2=C(O)c3ccccc3S(=O)(=O)N2C)c(C(=O)O)c1 [No. 6, 4-Hydroxy-2-methyl-N-(2'-carboxy-4'-methylphenyl)-2H-1,2-benzothiazine-3-carboxamido-1,1-dioxide]
- inhibition at 200 µM [1]: 63%

Structure (SMILES): CN1C(C(=O)Nc2ccc(Cl)cc2C(=O)O)=C(O)c2ccccc2S1(=O)=O [No. 3, 4-Hydroxy-2-methyl-N-(2'-carboxy-4'-chlorophenyl)-2H-1,2-benzothiazine-3-carboxamido-1,1-dioxide]
- inhibition at 200 µM [1]: 65%

Structure (SMILES): CN1C(C(=O)Nc2ccc(C(=O)O)cc2)=C(O)c2ccccc2S1(=O)=O [No. 11, 4-Hydroxy-2-methyl-N-(4'-carboxyphenyl)-2H-1,2-benzothiazine-3-carboxamido-1,1-dioxide]
- inhibition at 200 µM [1]: 60.3%

Structure (SMILES): COc1ccc2c(c1)c(CC(=O)O)c(C)n2C(=O)c1ccc(Cl)cc1 [Indometacin]
- ulcer formation, in words [4]: very serious ulcer
- Ulcer index mean S.E. ([4]; rats fasted 24 hours, 48 hours after administration): 42.8 ± 8.7

Structure (SMILES): CN1C(C(=O)Nc2ccccn2)=C(O)c2ccccc2S1(=O)=O [Piroxicam]
- effect on hyaluronidase activity [2]: no effect

Structure (SMILES): COc1ccc(/C=C/C(=O)Nc2ccccc2C(=O)O)cc1OC [Tranilast]
- inhibition of histamine liberation [5]: about 20%
- IC50 [6]: ~230 µM

Structure (SMILES): CN1C(C(=O)Nc2ccccc2-c2nn[nH]n2)=C(O)c2ccccc2S1(=O)=O [No. 1, 4-hydroxy-2-methyl-N-[2'-(tetrazo-5"-yl)phenyl]-2H-1,2-benzothiazine-3-carboxamido-1,1-dioxide]
- Suppression (%) [3]: 65.1%
- Amount of colorant which leaked out [3]: 3.4 ± 1.3 μg/site
- swelling percent ([7]; 200 mg/kg p.o. 60 min before carrageenin, 30 minutes after carrageenin administration, control 18.2%): 8.0%
- inhibition (%) of edema, in words ([7]; 200 mg/kg p.o., 1, 1.5, 2 and 3 hours after carrageenin administration): About the same inhibition
- inhibition of edema ([7]; 200 mg/kg p.o., 30 minutes after carrageenin administration): 54%
- inhibition at 200 µM [1]: 93.9%
- death in acute toxicity test [8]: no death

Structure (SMILES): CN1C(C(=O)Nc2ccc(O)cc2C(=O)O)=C(O)c2ccccc2S1(=O)=O [No. 7, 4-Hydroxy-2-methyl-N-(2'-carboxy-4'-hydroxyphenyl)-2H-1,2-benzothiazine-3-carboxamido-1,1-dioxide]
- inhibition at 200 µM [1]: 86%

Structure (SMILES): Cc1cccc(NC(=O)C2=C(O)c3ccccc3S(=O)(=O)N2C)c1C(=O)O [No. 5, 4-Hydroxy-2-methyl-N-(2'-carboxy-3'-methylphenyl)-2H-1,2-benzothiazine-3-carboxamido-1,1-dioxide]
- inhibition at 200 µM [1]: 85.2%
